Reference: patent US9302999B2, “Substituted triazoles as herbicides” (E. I. DU PONT DE NEMOURS AND COMPANY, priority 2012, dated 2016)

Assays:
Format in all cases: in vivo
[1] = test system: barnyardgrass (Echinochloa crus-galli); assay: Test A pre-/postemergence: barnyardgrass; conditions: for Barnyardgrass plant response rating: Postemergence; for Plant response rating, Barnyardgrass: Preemergence
In short: (§1)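 Compounds, formulated with surfactant in non-phytotoxic solvent, were applied as a directed soil spray preemergence and as postemergence sprays to 2–10 cm, one- to two-leaf seedlings grown in loam soil blended with sand; visual injury, 0–100, assessed ~10 days post-treatment against untreated controls.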

[2] = test system: crabgrass, large (large crabgrass, Digitaria sanguinalis); assay: Test A pre-/postemergence: crabgrass, large; conditions: for Crabgrass, Large plant response rating: Postemergence; for Plant response rating, Crabgrass, Large: Preemergence
In short: as §1

[3] = test system: foxtail, giant (giant foxtail, Setaria faberii); assay: Test A pre-/postemergence: foxtail, giant; conditions: for Foxtail, Giant plant response rating: Postemergence; for Plant response rating, Foxtail, Giant: Preemergence
In short: as §1

[4] = test system: morningglory (Ipomoea spp.); assay: Test A pre-/postemergence: morningglory; conditions: for Morningglory plant response rating: Postemergence; for Plant response rating, Morningglory: Preemergence
In short: as §1

[5] = test system: pigweed (Amaranthus retroflexus); assay: Test A pre-/postemergence: pigweed; conditions: for Pigweed plant response rating: Postemergence; for Plant response rating, Pigweed: Preemergence
In short: as §1

[6] = test system: velvetleaf (Abutilon theophrasti); assay: Test A pre-/postemergence: velvetleaf; conditions: for Velvetleaf plant response rating: Postemergence; for Plant response rating, Velvetleaf: Preemergence
In short: as §1

[7] = test system: wheat (Triticum aestivum); assay: Test A pre-/postemergence: wheat; conditions: for Wheat plant response rating: Postemergence; for Plant response rating, Wheat: Preemergence
In short: as §1

corn (Zea mays) = assay: Test A pre-/postemergence: corn; conditions: for Corn plant response rating: Postemergence; for Plant response rating, Corn: Preemergence
In short: as §1

rice (Oryza sativa) = assay: Test C flooded paddy test: rice; conditions: scale 0 to 100 (0 no effect, 100 complete control)
In short: (§2)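 Rating: visual, 0–100 (100 = complete control), versus untreated controls after 13 to 15 greenhouse days. Treatment went into paddy water held at 3 cm over the soil, on plants grown to two leaves.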

[8] = test system: sedge, umbrella (small-flower umbrella sedge, Cyperus difformis); assay: Test C flooded paddy test: sedge, umbrella; conditions: scale 0 to 100 (0 no effect, 100 complete control)
In short: as §2

[9] = test system: ducksalad (Heteranthera limosa); assay: Test C flooded paddy test: ducksalad; conditions: scale 0 to 100 (0 no effect, 100 complete control)
In short: as §2

[10] = test system: barnyardgrass (Echinochloa crus-galli); assay: Test C flooded paddy test: barnyardgrass; conditions: scale 0 to 100 (0 no effect, 100 complete control)
In short: as §2

[11] = 125 g ai/ha, 0 to 100 scale, 0 is no effect, 100 is complete control
[12] = 500 g ai/ha, visual rating on 0 to 100 scale (0 no effect, 100 complete control), approximately ten days
[13] = 125 g ai/ha, 0 to 100 scale (0 no effect, 100 complete control)
[14] = 500 g ai/ha, 0 to 100 scale, 0 is no effect, 100 is complete control
[15] = Flood (flooded paddy test), 62 g ai/ha, visual rating after 13 to 15 days
[16] = Flood (flooded paddy test), 125 g ai/ha, visual rating after 13 to 15 days
[17] = Flood (flooded paddy test), 250 g ai/ha, visual rating after 13 to 15 days

Cc1nn(-c2ccccn2)nc1C(=O)c1cccc(C(F)(F)F)c1 [Compound 60]
Barnyardgrass plant response rating [1, 11]: 0 | Barnyardgrass plant response rating [1, 12]: 10 | Plant response rating, Barnyardgrass [1, 13]: 0 | Plant response rating, Barnyardgrass [1, 14]: 0 | Crabgrass, Large plant response rating [2, 11]: 0 | Crabgrass, Large plant response rating [2, 12]: 10 | Plant response rating, Crabgrass, Large [2, 13]: 0 | Plant response rating, Crabgrass, Large [2, 14]: 0 | Foxtail, Giant plant response rating [3, 11]: 0 | Foxtail, Giant plant response rating [3, 12]: 0 | Plant response rating, Foxtail, Giant [3, 13]: 0 | Plant response rating, Foxtail, Giant [3, 14]: 0 | Morningglory plant response rating [4, 11]: 0 | Morningglory plant response rating [4, 12]: 0 | Plant response rating, Morningglory [4, 13]: 0 | Plant response rating, Morningglory [4, 14]: 0 | Pigweed plant response rating [5, 11]: 0 | Pigweed plant response rating [5, 12]: 10 | Plant response rating, Pigweed [5, 13]: 0 | Plant response rating, Pigweed [5, 14]: 0 | Velvetleaf plant response rating [6, 11]: 0 | Velvetleaf plant response rating [6, 12]: 0 | Plant response rating, Velvetleaf [6, 13]: 0 | Plant response rating, Velvetleaf [6, 14]: 0 | Wheat plant response rating [7, 11]: 0 | Wheat plant response rating [7, 12]: 0 | Plant response rating, Wheat [7, 13]: 0 | Plant response rating, Wheat [7, 14]: 0 | Corn plant response rating (corn (Zea mays); [11]): 0 | Corn plant response rating (corn (Zea mays); [12]): 10 | Plant response rating, Corn (corn (Zea mays); [13]): 0 | Plant response rating, Corn (corn (Zea mays); [14]): 0 | Plant response rating, Rice (rice (Oryza sativa); [15]): 0 | Plant response rating, Rice (rice (Oryza sativa); [16]): 0 | Plant response rating, Rice (rice (Oryza sativa); [17]): 0 | Plant response rating, Rice (rice (Oryza sativa); Flood, 31 g ai/ha): 0 | Plant response rating, Sedge, Umbrella [8, 15]: 0 | Plant response rating, Sedge, Umbrella [8, 16]: 0 | Plant response rating, Sedge, Umbrella [8, 17]: 0 | Plant response rating, Sedge, Umbrella ([8]; Flood, 31 g ai/ha): 0 | Plant response rating, Ducksalad [9, 15]: 0 | Plant response rating, Ducksalad [9, 16]: 0 | Plant response rating, Ducksalad [9, 17]: 0 | Plant response rating, Ducksalad ([9]; Flood, 31 g ai/ha): 0 | Plant response rating, Barnyardgrass [10, 15]: 0 | Plant response rating, Barnyardgrass [10, 16]: 0 | Plant response rating, Barnyardgrass [10, 17]: 0 | Plant response rating, Barnyardgrass ([10]; Flood, 31 g ai/ha): 0

Cc1nn(-c2cccc(C(F)(F)F)c2)nc1Oc1cc(C(F)(F)F)nn1C [Compound 64]
Barnyardgrass plant response rating [1, 11]: 0 | Barnyardgrass plant response rating [1, 12]: 0 | Plant response rating, Barnyardgrass [1, 13]: 0 | Plant response rating, Barnyardgrass [1, 14]: 0 | Crabgrass, Large plant response rating [2, 11]: 0 | Crabgrass, Large plant response rating [2, 12]: 0 | Plant response rating, Crabgrass, Large [2, 13]: 0 | Plant response rating, Crabgrass, Large [2, 14]: 0 | Foxtail, Giant plant response rating [3, 11]: 0 | Foxtail, Giant plant response rating [3, 12]: 0 | Plant response rating, Foxtail, Giant [3, 13]: 0 | Plant response rating, Foxtail, Giant [3, 14]: 0 | Morningglory plant response rating [4, 11]: 0 | Morningglory plant response rating [4, 12]: 0 | Plant response rating, Morningglory [4, 13]: 0 | Plant response rating, Morningglory [4, 14]: 0 | Pigweed plant response rating [5, 11]: 0 | Pigweed plant response rating [5, 12]: 0 | Plant response rating, Pigweed [5, 13]: 0 | Plant response rating, Pigweed [5, 14]: 0 | Velvetleaf plant response rating [6, 11]: 0 | Velvetleaf plant response rating [6, 12]: 0 | Plant response rating, Velvetleaf [6, 13]: 0 | Plant response rating, Velvetleaf [6, 14]: 0 | Wheat plant response rating [7, 11]: 0 | Wheat plant response rating [7, 12]: 0 | Plant response rating, Wheat [7, 13]: 0 | Plant response rating, Wheat [7, 14]: 0 | Corn plant response rating (corn (Zea mays); [11]): 0 | Corn plant response rating (corn (Zea mays); [12]): 0 | Plant response rating, Corn (corn (Zea mays); [13]): 0 | Plant response rating, Corn (corn (Zea mays); [14]): 0 | Plant response rating, Rice (rice (Oryza sativa); [15]): 0 | Plant response rating, Rice (rice (Oryza sativa); [16]): 0 | Plant response rating, Rice (rice (Oryza sativa); [17]): 0 | Plant response rating, Rice (rice (Oryza sativa); Flood, 31 g ai/ha): 0 | Plant response rating, Sedge, Umbrella [8, 15]: 0 | Plant response rating, Sedge, Umbrella [8, 16]: 0 | Plant response rating, Sedge, Umbrella [8, 17]: 0 | Plant response rating, Sedge, Umbrella ([8]; Flood, 31 g ai/ha): 0 | Plant response rating, Ducksalad [9, 15]: 0 | Plant response rating, Ducksalad [9, 16]: 0 | Plant response rating, Ducksalad [9, 17]: 0 | Plant response rating, Ducksalad ([9]; Flood, 31 g ai/ha): 0 | Plant response rating, Barnyardgrass [10, 15]: 0 | Plant response rating, Barnyardgrass [10, 16]: 0 | Plant response rating, Barnyardgrass [10, 17]: 0 | Plant response rating, Barnyardgrass ([10]; Flood, 31 g ai/ha): 0

Cc1nn(-c2ccc(C(F)F)cn2)nc1C(=O)c1cccc(C(F)(F)F)c1 [Compound 68]
Barnyardgrass plant response rating [1, 11]: 0 | Barnyardgrass plant response rating [1, 12]: 10 | Plant response rating, Barnyardgrass [1, 13]: 0 | Plant response rating, Barnyardgrass [1, 14]: 0 | Crabgrass, Large plant response rating [2, 11]: 10 | Crabgrass, Large plant response rating [2, 12]: 10 | Plant response rating, Crabgrass, Large [2, 13]: 0 | Plant response rating, Crabgrass, Large [2, 14]: 0 | Foxtail, Giant plant response rating [3, 11]: 10 | Foxtail, Giant plant response rating [3, 12]: 10 | Plant response rating, Foxtail, Giant [3, 13]: 0 | Plant response rating, Foxtail, Giant [3, 14]: 0 | Morningglory plant response rating [4, 11]: 0 | Morningglory plant response rating [4, 12]: 10 | Plant response rating, Morningglory [4, 13]: 0 | Plant response rating, Morningglory [4, 14]: 0 | Pigweed plant response rating [5, 11]: 10 | Pigweed plant response rating [5, 12]: 50 | Plant response rating, Pigweed [5, 13]: 0 | Plant response rating, Pigweed [5, 14]: 0 | Velvetleaf plant response rating [6, 12]: 0 | Plant response rating, Velvetleaf [6, 13]: 0 | Plant response rating, Velvetleaf [6, 14]: 0 | Wheat plant response rating [7, 11]: 0 | Wheat plant response rating [7, 12]: 10 | Plant response rating, Wheat [7, 13]: 0 | Plant response rating, Wheat [7, 14]: 0 | Corn plant response rating (corn (Zea mays); [11]): 0 | Corn plant response rating (corn (Zea mays); [12]): 10 | Plant response rating, Corn (corn (Zea mays); [13]): 0 | Plant response rating, Corn (corn (Zea mays); [14]): 0 | Plant response rating, Rice (rice (Oryza sativa); [15]): 0 | Plant response rating, Rice (rice (Oryza sativa); [16]): 0 | Plant response rating, Rice (rice (Oryza sativa); [17]): 0 | Plant response rating, Rice (rice (Oryza sativa); Flood, 31 g ai/ha): 0 | Plant response rating, Sedge, Umbrella [8, 15]: 0 | Plant response rating, Sedge, Umbrella [8, 16]: 0 | Plant response rating, Sedge, Umbrella [8, 17]: 0 | Plant response rating, Sedge, Umbrella ([8]; Flood, 31 g ai/ha): 0 | Plant response rating, Ducksalad [9, 15]: 0 | Plant response rating, Ducksalad [9, 16]: 0 | Plant response rating, Ducksalad [9, 17]: 0 | Plant response rating, Ducksalad ([9]; Flood, 31 g ai/ha): 0 | Plant response rating, Barnyardgrass [10, 15]: 0 | Plant response rating, Barnyardgrass [10, 16]: 0 | Plant response rating, Barnyardgrass [10, 17]: 0 | Plant response rating, Barnyardgrass ([10]; Flood, 31 g ai/ha): 0
